Results published in patent US20260001875A1, “AMINOPYRIMIDINYL DERIVATIVES FOR THE TREATMENT OF PARKINSON'S DISEASE” (UNIVERSITY OF DUNDEE, priority 2022, published 2026).

How the values were obtained:
LRRK2 = LRRK2 (Mus musculus, UniProt Q5S006); assay: LRRK2 degradation in bone marrow-derived macrophages; assay type: cell-based
Description: Bone marrow isolation and macrophage differentiation was modified from (Wells et al., 2004), employing L929 preconditioned medium as the source of M-CSF for differentiation. Briefly, scissors and forceps were used to dissect femurs and tibiae from adult mice, and muscle tissue was carefully removed from bones. Clean femurs and tibiae were placed in a tissue culture dish containing complete media. The ends of each bone were cut with scissors to expose bone marrow. Bone marrow was flushed with a 25-gauge needle attached to a 10 ml syringe containing complete media. Media containing bone marrow was passed through a 70 μm cell strainer and precursor cells were plated on non-tissue culture treated 10 cm bacteriological plates containing 10 ml complete media. This was marked as day 0 of isolation. On day three post-isolation, macrophages were topped up with 5 ml fresh complete media. On day seven post-isolation, macrophages were rinsed once with PBS and incubated with Versene for 5 minutes in a 37° C. 5% CO2 tissue culture incubator. Macrophages were detached with cell scrapers and were centrifuged at 1200 rpm for 5 minutes at room temperature. The Versene was aspirated and the remaining cell pellet was resuspended in complete media. The cell suspension was counted, and cells were seeded for experimental analysis in a 6-well format, in tissue culture treated dishes at a final cell density of one million cells per 6-well.
Culturing and passaging of adherent cell lines were carried out using aseptic technique in CL1 or CL2 (for PBMC isolation) biological safety cabinets. All cells were incubated in a 37° C. incubator with 5% CO2. Cell lines were regularly tested for mycoplasma contamination. For western blot assay, the cells were seeded in 6-well plates. […] The cell pellet was discarded, and supernatant was collected for analysis by quantitative immunoblotting. […] Protein concentrations of cell lysates were determined using the Bradford assay. […]

VHL and LRRK2 = biological target: T1, VHL and LRRK2 (Homo sapiens, UniProt P40337+Q5S007); assay: NanoBRET ternary complex formation assay; assay type: binding
T1 construct: host or cells: HEK293 (digitonin-permeabilized), with purified labelled VCB added
Protocol: VCB was labeled with Bodipy 576/589 following protocol reported previously 76. Briefly, the VCB complex was mixed with Bodipy 576/589 NHS ester in a 20:1 molar ration and incubated at room temperature (protect from light) for 2 h in reaction buffer (0.1 M sodium phosphate, 75 mM KOAc, 2 mM DTT, pH 7.4). The reaction was quenched by diluting 10 times with reaction buffer and the unreacted dye was removed with a PD-10 MiniTrap desalting column (GE Healthcare) equilibrated with 100 mM BisTris pH 7.0, 100 mM NaCl, 1 mM DTT, pH 7. The eluted labeled protein solution was collected and concentrated with Pierce Concentrator, 3K MWCO (Thermo scientific).
Hek293 cells were transfected with LRRK2-NanoLuc vector (Promega, NV3401) for 24 h, harvested, and resuspended into OptiMEM media without phenol red (Life Technologies). The cells were then seeded into white 384-well plate (Corning3570) at a density of 6000 cells/well. […] Each well was added with NanoBRET NanoGlo Substrate (Promega, N2160) before performing the NanoBRET reading on PHERAstar (BMG LABTECH) plate reader equipped with a 450-nm bandpass filter (donor) and a 600-nm long pass filter (acceptor). […]

LRRK2, sequence (Q5S006 whole entry): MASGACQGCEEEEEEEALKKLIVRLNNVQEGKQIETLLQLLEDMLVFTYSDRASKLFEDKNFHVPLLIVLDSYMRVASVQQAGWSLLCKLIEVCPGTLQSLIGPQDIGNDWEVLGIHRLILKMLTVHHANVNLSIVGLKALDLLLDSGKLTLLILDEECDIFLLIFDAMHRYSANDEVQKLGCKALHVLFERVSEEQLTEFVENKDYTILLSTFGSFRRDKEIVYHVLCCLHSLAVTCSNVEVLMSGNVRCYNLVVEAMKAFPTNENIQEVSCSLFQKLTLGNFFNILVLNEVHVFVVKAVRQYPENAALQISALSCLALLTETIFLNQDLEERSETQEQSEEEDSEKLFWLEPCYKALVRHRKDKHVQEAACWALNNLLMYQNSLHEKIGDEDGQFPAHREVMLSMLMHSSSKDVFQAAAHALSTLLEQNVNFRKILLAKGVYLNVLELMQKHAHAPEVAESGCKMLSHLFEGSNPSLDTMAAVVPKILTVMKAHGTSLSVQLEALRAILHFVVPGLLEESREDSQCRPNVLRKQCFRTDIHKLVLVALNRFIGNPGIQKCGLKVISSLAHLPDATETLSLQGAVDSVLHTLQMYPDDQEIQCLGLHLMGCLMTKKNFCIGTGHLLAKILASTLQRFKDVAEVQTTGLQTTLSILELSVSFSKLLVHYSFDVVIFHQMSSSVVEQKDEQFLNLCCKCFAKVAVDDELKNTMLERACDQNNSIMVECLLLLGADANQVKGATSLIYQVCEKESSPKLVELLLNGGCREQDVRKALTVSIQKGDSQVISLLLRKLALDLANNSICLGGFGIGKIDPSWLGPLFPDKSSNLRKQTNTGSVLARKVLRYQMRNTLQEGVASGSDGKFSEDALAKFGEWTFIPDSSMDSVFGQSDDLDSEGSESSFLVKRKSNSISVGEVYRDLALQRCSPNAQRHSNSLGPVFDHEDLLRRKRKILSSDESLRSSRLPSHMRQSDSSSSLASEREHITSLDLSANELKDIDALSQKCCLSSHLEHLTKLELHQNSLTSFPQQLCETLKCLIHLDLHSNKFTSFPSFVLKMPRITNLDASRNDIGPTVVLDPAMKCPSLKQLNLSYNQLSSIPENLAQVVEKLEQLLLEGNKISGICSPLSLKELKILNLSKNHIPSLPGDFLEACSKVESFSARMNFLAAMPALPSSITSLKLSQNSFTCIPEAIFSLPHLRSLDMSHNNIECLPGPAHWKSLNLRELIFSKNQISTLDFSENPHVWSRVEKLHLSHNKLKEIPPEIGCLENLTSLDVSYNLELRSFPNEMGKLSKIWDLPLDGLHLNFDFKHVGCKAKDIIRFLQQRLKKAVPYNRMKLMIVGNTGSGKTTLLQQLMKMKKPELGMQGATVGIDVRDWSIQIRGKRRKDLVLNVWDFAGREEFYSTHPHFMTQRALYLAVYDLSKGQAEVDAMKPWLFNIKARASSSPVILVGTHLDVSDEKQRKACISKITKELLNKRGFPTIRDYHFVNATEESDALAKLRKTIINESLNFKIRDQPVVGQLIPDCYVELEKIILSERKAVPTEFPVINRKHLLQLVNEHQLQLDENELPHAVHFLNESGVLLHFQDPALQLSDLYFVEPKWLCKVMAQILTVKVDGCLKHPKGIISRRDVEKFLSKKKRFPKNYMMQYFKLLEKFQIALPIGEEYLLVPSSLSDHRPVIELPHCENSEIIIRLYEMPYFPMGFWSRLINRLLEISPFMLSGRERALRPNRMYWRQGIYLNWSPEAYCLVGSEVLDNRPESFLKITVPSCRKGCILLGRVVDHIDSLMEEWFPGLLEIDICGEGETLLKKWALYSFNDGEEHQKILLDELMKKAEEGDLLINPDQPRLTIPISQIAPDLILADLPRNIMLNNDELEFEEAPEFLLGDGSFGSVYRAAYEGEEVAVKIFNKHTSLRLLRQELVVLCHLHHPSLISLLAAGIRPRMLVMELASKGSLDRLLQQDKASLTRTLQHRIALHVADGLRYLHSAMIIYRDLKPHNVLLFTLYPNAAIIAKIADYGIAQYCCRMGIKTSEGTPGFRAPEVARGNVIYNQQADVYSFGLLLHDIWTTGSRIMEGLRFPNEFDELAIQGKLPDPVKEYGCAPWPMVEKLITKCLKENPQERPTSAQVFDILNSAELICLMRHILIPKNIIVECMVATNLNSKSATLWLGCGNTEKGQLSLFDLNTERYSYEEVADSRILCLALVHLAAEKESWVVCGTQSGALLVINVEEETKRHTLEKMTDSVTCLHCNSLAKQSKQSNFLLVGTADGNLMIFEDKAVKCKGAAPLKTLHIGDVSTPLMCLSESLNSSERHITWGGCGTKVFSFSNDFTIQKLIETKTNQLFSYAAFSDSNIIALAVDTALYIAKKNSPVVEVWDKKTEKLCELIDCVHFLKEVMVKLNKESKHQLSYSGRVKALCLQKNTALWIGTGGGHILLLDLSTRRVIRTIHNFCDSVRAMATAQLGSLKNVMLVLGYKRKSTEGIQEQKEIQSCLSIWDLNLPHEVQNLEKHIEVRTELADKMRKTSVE

SMILES	LRRK2 degradation in macrophages (in words) (LRRK2)	ternary complex formation with VHL and LRRK2 (in words) (VHL and LRRK2)	LRRK2 protein level reduced in macrophages (LRRK2)	DC50 (LRRK2; dose response)
CNc1nc(Nc2ccc(C(=O)N3CCN(C[C@H]4CC[C@H](CSC(C)(C)[C@H](NC(=O)C5(F)CC5)C(=O)N5C[C@@H](O)CC5C(=O)NCc5ccc(-c6scnc6C)cc5)CC4)CC3)cc2OC)ncc1Cl (stereo partly drawn) [Cis-XL01126, (2S,4S)-1-((R)-3-((((1r,4R)-4-((4-(4-((5-chloro-4-(methylamino)pyrimidin-2-yl)amino)-3-methoxybenzoyl)piperazin-1-yl)methyl)cyclohexyl)methyl)thio)-2-(1-fluorocyclopropane-1-carboxamido)-3-methylbutanoyl)-4-hydroxy-N-(4-(4-methylthiazol-5-yl)benzyl)pyrrolidine-2-carboxamide]	cannot degrade LRRK2	cannot form ternary complex	–	–
CNc1nc(Nc2ccc(C(=O)N3CCN(C[C@H]4CC[C@H](CSC(C)(C)[C@H](NC(=O)C5(F)CC5)C(=O)N5C[C@H](O)CC5C(=O)NCc5ccc(-c6scnc6C)cc5)CC4)CC3)cc2OC)ncc1Cl (stereo partly drawn) [XL01126, (2S,4R)-1-((R)-3-((((1R,4R)-4-((4-(4-((5-chloro-4-(methylamino)pyrimidin-2-yl)amino)-3-methoxybenzoyl)piperazin-1-yl)methyl)cyclohexyl)methyl)thio)-2-(1-fluorocyclopropane-1-carboxamido)-3-methylbutanoyl)-4-hydroxy-N-(4-(4-methylthiazol-5-yl)benzyl)pyrrolidine-2-carboxamide]	–	highest ternary complex	80-90%	0.055 µM
